Test results from ChEMBL document CHEMBL5728519, “Compounds of formulas (VII), (VIII), (IX), (XI), (XII), (XIII), and (XIV) as muscarinic receptor 4(M4) antagonists for treating neurological diseases” (2021).

What was measured:
[1] = target: T1, Muscarinic acetylcholine receptor M4 (Homo sapiens, UniProt P08173); test: (§1) Binding Assay: Binding affinity (Ki) of compounds was measured by inhibition of radioligand binding to membranes from CHO cells expressing human M1, M2, M3, M4 and M5 receptors. Membranes were prepared by nitrogen cavitation and differential centrifugation as previously described (Hoare et al., Mol. Pharmacol. 2003 March; 63(3): 751-65). The radioligand employed was tritiated N-methylscopolamine, used at a concentration of 1.5 nM. A dose-response of twelve concentrations of compound was used, […]. The assay buffer was 50 mM HEPES, 100 mM NaCl, 5 mM MgCl2, 1 mM ethylenediaminetetraacetic acid, pH-adjusted to pH 7.4.
T1 sequence (P08173 whole entry): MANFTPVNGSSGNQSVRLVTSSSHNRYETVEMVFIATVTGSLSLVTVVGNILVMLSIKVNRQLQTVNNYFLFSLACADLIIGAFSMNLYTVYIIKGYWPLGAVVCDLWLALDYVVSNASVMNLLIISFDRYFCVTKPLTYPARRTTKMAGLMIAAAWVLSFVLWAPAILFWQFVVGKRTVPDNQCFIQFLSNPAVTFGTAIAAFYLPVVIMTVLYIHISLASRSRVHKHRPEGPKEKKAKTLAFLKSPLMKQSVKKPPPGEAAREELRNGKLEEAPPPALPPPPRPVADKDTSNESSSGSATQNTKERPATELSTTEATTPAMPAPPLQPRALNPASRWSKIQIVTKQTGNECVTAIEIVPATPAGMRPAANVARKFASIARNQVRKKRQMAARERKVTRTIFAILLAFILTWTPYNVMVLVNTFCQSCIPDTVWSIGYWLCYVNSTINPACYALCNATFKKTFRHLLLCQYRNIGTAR

[2] = target: T2, Muscarinic acetylcholine receptor M1 (Homo sapiens, UniProt P11229); test: as §1
T2 sequence (P11229 whole entry): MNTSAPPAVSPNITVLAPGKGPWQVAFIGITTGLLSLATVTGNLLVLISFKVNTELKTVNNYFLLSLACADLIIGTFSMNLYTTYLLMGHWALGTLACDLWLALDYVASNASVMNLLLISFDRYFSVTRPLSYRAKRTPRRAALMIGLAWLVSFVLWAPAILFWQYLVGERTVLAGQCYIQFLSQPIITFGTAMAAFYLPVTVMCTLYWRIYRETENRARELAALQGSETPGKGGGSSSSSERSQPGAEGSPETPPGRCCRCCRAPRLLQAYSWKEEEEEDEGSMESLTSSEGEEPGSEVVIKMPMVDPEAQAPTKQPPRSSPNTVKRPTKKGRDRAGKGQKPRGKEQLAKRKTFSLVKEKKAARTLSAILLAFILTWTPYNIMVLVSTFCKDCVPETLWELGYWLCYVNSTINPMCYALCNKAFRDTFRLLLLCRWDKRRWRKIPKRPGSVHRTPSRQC

| SMILES | Ki [1] [nM] | Ki [2] [nM] |
| --- | --- | --- |
| COc1ccc(N2CCN(C(=O)NCCC3CCN(Cc4ccccc4)CC3)[C@H](C)C2)cc1C#N | 10 to 100 | – |
| C[C@@H]1CN(c2ncc(C(F)(F)F)c(N)n2)CCN1C(=O)NCCC1CCN(Cc2ccccc2)CC1 | – | 10 to 100 |
| C[C@@H]1CN(c2ncc(C(F)(F)F)cn2)CCN1C(=O)NCCC1CCN(Cc2ccccc2)CC1 | – | 100 to 1000 |
